Like-named read-outs stand apart in the source and are kept apart here.
What was measured:
[1] = tested on: lung cancer cell lines (e.g. NCI-H23, NCI-H1229); test: Cell based assay, cell viability (CellTiter-Glo), lung cancer cell lines; conditions: Homo sapiens
Outline: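 Following a 24 h pre-culture in plates, cells receive test compound (final 0 to 2 μM) for 72 hours. Luminescent quantitation of cellular ATP gives viability.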

brain cancer cell lines = test: Cell based assay, cell viability (CellTiter-Glo), brain cancer cell lines; conditions: Homo sapiens
[2] = tested on: cervical carcinoma cell lines; test: Cell based assay, cell viability (CellTiter-Glo), cervical carcinoma cell lines; conditions: Homo sapiens; HeLa cells
[3] = A549 cells, 72 hours treatment, CellTiter-Glo, read-out: IC50, lung cancer cell line A549
[4] = DMS 114 cells, 72 hours treatment, CellTiter-Glo, read-out: IC50, lung cancer cell line DMS 114
[5] = MRC-5 cells, 72 hours treatment, CellTiter-Glo, read-out: IC50
[6] = NCI-H23 cells, 72 hours treatment, CellTiter-Glo, read-out: IC50, lung cancer cell line NCI-H23
[7] = NCI-H460 cells, 72 hours treatment, CellTiter-Glo, read-out: IC50, lung cancer cell line NCI-H460
[8] = NCI-H522 cells, 72 hours treatment, CellTiter-Glo, read-out: IC50, lung cancer cell line NCI-H522
[9] = NCI-H1299 cells, 72 hours treatment, CellTiter-Glo, read-out: IC50, lung cancer cell line NCI-H1299
[10] = NCI-H1437 cells, 72 hours treatment, CellTiter-Glo, read-out: IC50, lung cancer cell line NCI-H1437
[11] = U138-MG, U-138 MG cell line, read-out: IC50, Brain cancer cell line U-138 MG
[12] = T98G cell line, read-out: IC50, Brain cancer cell line T98G
[13] = U-251 MG cell line, read-out: IC50, Brain cancer cell line U-251 MG
[14] = Lung cancer cell line A549, 72 hours, cell viability (CellTiter-Glo), read-out: IC50, A549
[15] = Lung cancer cell line DMS 114, 72 hours, cell viability (CellTiter-Glo), read-out: IC50, DMS 114
[16] = Lung cancer cell line NCI-H23, 72 hours, cell viability (CellTiter-Glo), read-out: IC50, NCI-H23
[17] = Lung cancer cell line NCI-H460, 72 hours, cell viability (CellTiter-Glo), read-out: IC50, NCI-H460
[18] = Lung cancer cell line NCI-H522, 72 hours, cell viability (CellTiter-Glo), read-out: IC50, NCI-H522
[19] = Lung cancer cell line NCI-H1299, 72 hours, cell viability (CellTiter-Glo), read-out: IC50, NCI-H1299
[20] = Lung cancer cell line NCI-H1437, 72 hours, cell viability (CellTiter-Glo), read-out: IC50, NCI-H1437
[21] = MRC-5 (listed under Lung cancer cell line), 72 hours, cell viability (CellTiter-Glo), read-out: IC50, MRC-5

Structure (SMILES) | IC50 [1, 3] [nM] | IC50 [1, 4] [nM] | IC50 [1, 5] [nM] | IC50 [1, 6] [nM] | IC50 [1, 7] [nM] | IC50 [1, 8] [nM] | IC50 [1, 9] [nM] | IC50 [1, 10] [nM] | IC50 (brain cancer cell lines; [11]) [nM] | IC50 (brain cancer cell lines; [12]) [nM] | IC50 (brain cancer cell lines; [13]) [nM] | IC50 [2] [nM] | IC50 [1, 14] [nM] | IC50 [1, 15] [nM] | IC50 [1, 16] [nM] | IC50 [1, 17] [nM] | IC50 [1, 18] [nM] | IC50 [1, 19] [nM] | IC50 [1, 20] [nM] | IC50 [1, 21] [nM]
COc1cccc2[nH]c([S+]([O-])Cc3cc(C)on3)c(C(C)=O)c(=O)c12 (stereo not drawn) [Compound 94, 3-acetyl-5-methoxy-2-(((5-methylisoxazol-3-yl)methyl)sulfinyl)quinolin-4(1H)-one] | > 2000 | > 2000 | > 2000 | 2070 | > 2000 | > 2000 | > 2000 | > 10000 | > 2000 | > 10000 | > 2000 | > 10000 |  |  |  |  |  |  |  | 
CC(=O)c1c(S)[nH]c2c(Br)ccc(Cl)c2c1=O [Compound 62, 3-acetyl-8-bromo-5-chloro-2-mercaptoquinolin-4(1H)-one] | > 2000 | > 2000 | > 2000 | > 2000 | > 2000 | > 2000 | > 2000 | > 10000 | > 10000 | > 10000 | > 2000 | > 10000 |  |  |  |  |  |  |  | 
CC(=O)c1c([S+]([O-])CN2C(=O)c3ccccc3C2=O)[nH]c2c(Cl)ccc(Cl)c2c1=O (stereo not drawn) [Compound 90, 2-(((3-acetyl-5,8-dichloro-4-oxo-1,4-dihydroquinolin-2-yl)sulfinyl)methyl)isoindoline-1,3-dione] | > 2000 | > 2000 | > 2000 | > 2000 | > 2000 | > 2000 | > 2000 | > 10000 | > 10000 | > 10000 | > 2000 | > 10000 |  |  |  |  |  |  |  | 
CC(=O)c1c([S+](C)[O-])n(Cc2ccc(F)c(Cl)c2)c2c(Br)ccc(Cl)c2c1=O (stereo not drawn) [Compound 22, 3-acetyl-8-bromo-5-chloro-1-(3-chloro-4-fluorobenzyl)-2-(methylsulfinyl)quinolin-4(1H)-one] | > 2000 | > 2000 | > 2000 | > 2000 | > 2000 | > 2000 | > 2000 | > 10000 | > 10000 | > 10000 | > 2000 | > 10000 |  |  |  |  |  |  |  | 
CC(=O)c1c(SCc2cccc(F)c2)[nH]c2c(Br)ccc(Cl)c2c1=O [Compound 49, 3-acetyl-8-bromo-5-chloro-2-((3-fluorobenzyl)thio)quinolin-4(1H)-one] | > 2000 | > 2000 | > 2000 | > 2000 | > 2000 | > 2000 | > 2000 | > 10000 | > 10000 | > 10000 | > 2000 | > 10000 |  |  |  |  |  |  |  | 
CC(=O)c1c(SC(C)C)[nH]c2c(Br)ccc(Cl)c2c1=O [Compound 24, 3-acetyl-8-bromo-5-chloro-2-(isopropylthio)quinolin-4(1H)-one] | > 2000 | > 2000 | > 2000 | > 2000 | > 2000 | > 2000 | > 2000 | > 10000 | > 10000 | > 10000 | > 2000 | > 10000 |  |  |  |  |  |  |  | 
CC(=O)c1c([S+](C)[O-])n(S(=O)(=O)c2ccc(C(C)(C)C)cc2)c2c(Br)ccc(Cl)c2c1=O (stereo not drawn) [Compound 42, 3-acetyl-8-bromo-1-((4-(tert-butyl)phenyl)sulfonyl)-5-chloro-2-(methylsulfinyl)quinolin-4(1H)-one] | > 2000 | > 2000 | > 2000 | 1840 | > 2000 | > 2000 | > 2000 | > 10000 | > 2000 | > 10000 | > 2000 | > 10000 |  |  |  |  |  |  |  | 
CC(=O)c1c([S+](C)[O-])n(S(=O)(=O)C(F)(F)F)c2c(Br)ccc(Cl)c2c1=O (stereo not drawn) [Compound 36, 3-acetyl-8-bromo-5-chloro-2-(methylsulfinyl)-1-((trifluoromethyl)sulfonyl)quinolin-4(1H)-one] | > 2000 | > 2000 | > 2000 | > 2000 | > 2000 | > 2000 | > 2000 | > 10000 | > 2000 | > 10000 | > 2000 | > 10000 |  |  |  |  |  |  |  | 
CSc1[nH]c2c(Br)ccc(Cl)c2c(=O)c1C(C)=O [Compound 2, 3-acetyl-8-bromo-5-chloro-2-(methylthio)quinolin-4(1H)-one] | > 2000 | > 2000 | > 2000 | > 2000 | > 2000 | > 2000 | > 2000 | > 10000 | > 10000 | > 10000 | > 2000 | > 10000 |  |  |  |  |  |  |  | 
CSc1c(C(C)=O)c(=O)c2c(Cl)ccc(Br)c2n1S(=O)(=O)c1ccc(Cl)cc1 [Compound 37, 3-acetyl-8-bromo-5-chloro-1-((4-chlorophenyl)sulfonyl)-2-(methylthio)quinolin-4(1H)-one] | > 2000 | > 2000 | > 2000 | > 2000 | > 2000 | > 2000 | > 2000 | > 10000 | > 10000 | > 10000 | > 2000 | > 10000 |  |  |  |  |  |  |  | 
Cc1cc(C[S+]([O-])c2[nH]c3c(Cl)ccc(Cl)c3c(=O)c2C(=O)C2CC2)no1 (stereo not drawn) [Compound 97, 5,8-dichloro-3-(cyclopropanecarbonyl)-2-(((5-methylisoxazol-3-yl)methyl)sulfinyl)quinolin-4(1H)-one] | > 2000 | > 2000 | 1430 | 1090 | 1460 | 1320 | 1480 | > 10000 | 1690 | > 10000 | 1120 | > 2000 |  |  |  |  |  |  |  | 
COc1cccc2[nH]c([S+]([O-])Cc3ccc(S(F)(F)(F)(F)F)cc3)c(C(C)=O)c(=O)c12 (stereo not drawn) [Compound 93, 3-acetyl-5-methoxy-2-((4-(pentafluoro--sulfanyl)benzyl)sulfinyl)quinolin-4(1H)-one] | > 2000 | > 2000 | > 2000 | > 2000 | > 2000 | > 2000 | > 2000 | > 10000 | > 10000 | > 10000 | > 2000 | > 10000 |  |  |  |  |  |  |  | 
CC(=O)c1c(SCc2ccccc2)nc2c(Br)ccc(Cl)c2c1O [Compound 52, 1-(2-(benzylthio)-8-bromo-5-chloro-4-hydroxyquinolin-3-yl)ethan-1-one] | > 2000 | > 2000 | > 2000 | > 2000 | > 2000 | > 2000 | > 2000 | > 10000 | > 10000 | > 10000 | > 2000 | > 10000 |  |  |  |  |  |  |  | 
CC(=O)c1c([S+]([O-])Cc2ccccc2)n(C(=O)c2ccc(Br)cc2)c2c(Br)ccc(Cl)c2c1=O (stereo not drawn) [Compound 20, 3-acetyl-2-(benzylsulfinyl)-8-bromo-1-(4-bromobenzoyl)-5-chloroquinolin-4(1H)-one] | > 2000 | > 2000 | > 2000 | 1390 | 1580 | > 2000 | 1580 | > 2000 | > 10000 | > 10000 | > 2000 | > 10000 |  |  |  |  |  |  |  | 
CC(=O)c1c([S+](C)[O-])n(C(C)=O)c2c(Br)ccc(Cl)c2c1=O (stereo not drawn) [Compound 19, 1,1′-(8-bromo-5-chloro-2-(methylsulfinyl)-4-oxoquinoline-1,3(4H)-diyl)bis(ethan-1-one)] | > 2000 | > 2000 | > 2000 | > 2000 | > 2000 | > 2000 | > 2000 | > 10000 | > 10000 | > 10000 | > 2000 | > 10000 |  |  |  |  |  |  |  | 
CC(=O)c1c([S+]([O-])Cc2cnc3[nH]ccc3c2)[nH]c2c(Br)ccc(Cl)c2c1=O (stereo not drawn) [Compound 107, 2-(((1H-pyrrolo[2,3-b]pyridin-5-yl)methyl)sulfinyl)-3-acetyl-8-bromo-5-chloroquinolin-4(1H)-one] |  |  |  |  |  |  |  |  | > 10000 | > 10000 | > 2000 | > 2000 | > 2000 | > 2000 | > 2000 | > 2000 | > 2000 | > 2000 | > 10000 | > 2000
CC(=O)c1c([S+]([O-])CC#N)[nH]c2c(Br)ccc(Cl)c2c1=O (stereo not drawn) [Compound 65, 2-((3-acetyl-8-bromo-5-chloro-4-oxo-1,4-dihydroquinolin-2-yl)sulfinyl)acetonitrile] | > 2000 | > 2000 | > 2000 | > 2000 | > 2000 | > 2000 | > 2000 | > 10000 | > 10000 | > 10000 | > 2000 | > 10000 |  |  |  |  |  |  |  | 
CC(=O)c1c([S+]([O-])Cc2ccc(-n3cccn3)nc2)[nH]c2c(Br)ccc(Cl)c2c1=O (stereo not drawn) [Compound 99, 2-(((6-(1H-pyrazol-1-yl)pyridin-3-yl)methyl)sulfinyl)-3-acetyl-8-bromo-5-chloroquinolin-4(1H)-one] |  |  |  |  |  |  |  |  | 1160 | > 10000 | 790 | > 2000 | 1290 | > 2000 | 920 | 1180 | 1130 | 1060 | > 10000 | 1130
CC(=O)c1c(SCC#N)[nH]c2c(Br)ccc(Cl)c2c1=O [Compound 66, 2-((3-acetyl-8-bromo-5-chloro-4-oxo-1,4-dihydroquinolin-2-yl)thio)acetonitrile] | > 2000 | > 2000 | > 2000 | > 2000 | > 2000 | > 2000 | > 2000 | > 10000 | > 10000 | > 10000 | > 2000 | > 10000 |  |  |  |  |  |  |  | 
